What was measured:
[1] = tested on: cultured neurons expressing MFN2 T105M or MFN2 R94Q; assay: Cultured mouse neurons expressing CMT2A MFN2 mutants; type: cell-based
Experimental: Neonatal mouse hippocampal neurons were cultured from brains of one day old Mfn2 T105M or non-transgenic sibling mouse pups as described. After 10 days of differentiating culture neurons were infected with Adeno-Cre to induce Mfn2 T105M expression or Adeno-βgal as a control (50 MOI). After an additional 72 hours mitofusin agonists or DMSO vehicle were added. For static confocal imaging neuronal mitochondria were labeled with adenoviral-expressed mitoGFP plus TMRE. Autophagy was measured by LC3 aggregation in neurons infected with adenoviral LC3-GFP. For time-lapse studies of mitochondrial trafficking bi-cistronic Adeno-Cre/GFP marked Cre expression and mitochondria were labeled with adeno-mitoDsRed. Confocal live cell images were acquired with a time-lapse of 1 frame every 90 seconds for 1 hour.

[2] = tested on: MEFs expressing CMT2A mutant MFN2; assay: Mitochondrial dysmorphology in MEFs expressing MFN2 mutants; type: cell-based, mouse; details: MFN2 T105M in MEFs
Experimental: Fusogenic activity of commercially available small-molecule candidate pharmacophores (TABLE 4), focusing on those having structures that mimicked Ser^378-phosphorylated (class A) and -unphosphorylated (class B) minipeptide amino acid side chains were assessed (see e.g., FIG. 5, TABLE 5). It was reasoned that simultaneous application of class A and B agonists could enhance mitofusin by acting on both MFN2 Ser^378 phosphorylation states. […] Therefore, Cpd A and B functionality were assimilated into a single molecule by creating Cpd A-B chimeras (see e.g., FIG. 11, FIG. 7, TABLE 6). […] On the basis of fluorescence resonance energy transfer (FRET) analysis of MFN2 labeled at the N and C termini, mitofusin agonists promoted an open MFN2 conformation favoring mitochondrial fusion, with a rank order paralleling that for HR2 binding and mitochondrial fusion (see e.g., FIG. 11G; compare to FIG. 11B and FIG. 11C), supporting allosteric activation. […]
Cells were excited with 408 nm (Hoechst), […] (MitoTracker Green and Calcein AM, GFP), or 637 nm (TMRE, MitoTracker Orange, Ethidium homodimer-1, and AF594-Dextran) laser diodes. For mitochondrial elongation studies mitochondrial aspect ratio (long axis/short axis) was calculated using automated edge detection and Image J software. […]

[3] = molecular target: T1, Mfn2 HR2 target peptide (Homo sapiens, UniProt O95140); assay: HR1 peptide-HR2 target binding assay
T1 construct: Gly linker (GGGG after the His tag)
T1 sequence (O95140 with tags, fused parts or gaps limits assumed): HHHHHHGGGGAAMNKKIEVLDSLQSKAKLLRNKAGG
Text: The Mfn-derived fusion-promoting and -inhibiting mini-peptides (simulated to obtain the chemical Mfn agonists in TABLE 1 and TABLE 2) were modified from amino acid heptad repeats (HR) in the HR1 domain and predicted to interact with their counterparts in the carboxyl terminus HR2 domain within the Mfn stalk region (see e.g., FIG. 1, top panel). A high-throughput binding assay was designed whereby the target HR2 peptide sequences, modified to include amino terminal 6×His tags and Gly linkers, were bonded to Ni-chelate resin (20 μg/ml) and used as immobilized “receptor” for amino-FITC-tagged Mfn2 374-384 (agonist ligand) in which the Ser analogous to Ser378 was replaced with Asp to confer the negative charge essential for activity. For antagonist studies the ligand was amino-FITC-tagged Mfn2 406-418. The FITC peptide ligands are suspended at 1 mM in 30% DMSO, 70% water (to minimize spontaneous aggregation) and diluted into binding buffer (de-ionized water) to a final concentration of 25 μM in the presence or absence of competing compound. Dose-dependent loss of resin-bound FITC signal (485 nm excitation/538 nm emission) measured in a 96 well spectrofluorometer represents binding of compound to its HR2 target (see e.g., FIG. 10, FIG. 11). Either the ligand peptide or the receptor peptide can be modified to represent mutations, variations, or posttranslational modifications of Mfn2. […]
Target HR2 peptide sequence modified to include amino terminal 6×His tags and Gly linkers, were bonded to Ni-NTA resin (4.4 μg/ml) (Quiagen) and used as immobilized “receptor” for amino-FITC-tagged Mfn2 374-384 (ligand) in which the Ser analogous to Ser378 was replaced with Asp to confer the negative charge essential for activity. […] Resin-bound FITC signal (485 nm excitation/538 nm emission) measured in a 96 well spectrofluorometer (Spectramax M5e, Molecular Devices) represented binding to HR2 target. Competition binding isotherms were plotted and IC50 values calculated using Prism 7 (Graph Pad).

With CC1CCCCC1NC(=O)NCCSc1nnc(C2CC2)n1-c1ccccc1 (racemic) [B-A/I, 1-(2-((5-cyclopropyl-4-phenyl-4H-1,2,4-triazol-3-yl)thio)ethyl)-3-(2-methylcyclohexyl)urea] the “mitochondrial fragmentation/dysmorphology, hypopolarization, autophagy in neurons” value ([1]; MFN2 R94Q or T105M) was “concomitantly corrected”, the “mitochondrial clumping and motility in neurons” value ([1]; MFN2 T105M) was “restored mitochondrial motility” and the “reversal of mitochondrial dysmorphology” value [2] was “as effective as the combination of Cpds A+B”. The “competition for minipeptide binding at MFN2 HR2 site” value [3] was “competed for minipeptide binding”.

— patent publication US11760733B2, “Small molecule regulators of mitochondrial fusion and methods of use thereof” (Washington University, priority 2017, dated 2023)
